{"source": "patent US20080089947A1", "about": "“Calcium Influx Inhibitors in the Treatment of Ischemia” (priority 2006, published 2008)", "key": {"[1]": {"test_system": "mitochondrial calcium uptake (mitochondrial calcium uniporter)", "experiment": "45Ca2+ uptake in isolated liver mitochondria", "assay_type": "biochemical, rat", "conditions": "for EC50: isolated mitochondria, pyruvate and malate, read-out: EC50 of inhibition of mitochondrial calcium uptake", "description": "Livers were isolated from male Sprague-Dawley rats (300 g). Rats were anesthetized with isoflurane and sacrificed by cervical dislocation. […] Briefly, the liver was minced and homogenized in liver homogenization buffer (LHB)(0.2 M mannitol, 50 mM sucrose, 10 mM KCl, and 1 mM Na2EDTA, pH=7.4, KOH). The homogenate was filtered through gauze and centrifuged 2 times for 10 min at 1,000× g. The supernatant was collected and centrifuged for 10 min at 3,000× g. The pellet was washed twice and resuspended in calcium-free LHB without EDTA to a concentration of 2 mg/mL. All steps were performed at 4° C.\nA combination of metabolic substrates pyruvic acid and malic acid (final concentration 1 mM each) was used as a source of mitochondrial energy. Radioactive ^45Ca^2+ (NEN Life Sciences Products, Inc., Boston, Mass.) was added to the incubation buffer (final concentration range: 0.1-2.0 μM). The experiments were initiated by addition of mitochondria to the incubation buffer (final concentration 0.2 mg/ml). 2-APB (in DMSO) was added at concentrations from 0-100 μM to determine its effects on mitochondrial calcium uptake. Mitochondria were incubated in a 37° C. shaking water bath for 30 minutes, filtered, and washed. Accumulated mitochondrial ^45Ca^2+ was then measured using liquid scintillation counting in a Beckman LS6000IC beta counter. Mitochondria in incubation buffer without pyruvic acid and malic acid served as background controls. Ruthenium red (10 μM), a uniporter antagonist, was tested in all conditions to determine inhibitory capacity on observed mitochondrial calcium uptake, and to ensure that all observed calcium uptake was through the uniporter.\nA combination of metabolic substrates pyruvic acid and malic acid was used as a source of mitochondrial energy. Radioactive ^45Ca^2+ was added to the incubation buffer (final concentration range: 0.1-2.0 μM). […] The calcium uptake experiments were initiated by addition of mitochondria to the incubation buffer (final concentration 0.2 mg/ml). Mitochondria were incubated in a 37° C. shaking water bath for 30 minutes, filtered, and washed, and calcium uptake quantified. Mitochondria in incubation buffer without pyruvic acid and malic acid served as background controls."}, "[2]": {"test_system": "liver ischemia/reperfusion injury", "description": "2-APB (2 mg/kg in DMSO), or vehicle (DMSO) was injected into the portal vein following 1 hour of ischemia, concurrent with removal of the vascular clamp. Animals were sacrificed after 3 hours of reperfusion (n=6 per group). Serum AST, ALT, and LDH levels were measured, and liver samples were evaluated histologically using H&E and TUNEL staining. To investigate the effect of 2-APB at the cellular level, an I/R model in HepG2 cells transfected with GFP-tagged cytochrome c was used. Statistical significance was assessed using Student t-test."}, "liver transplantation": {"test_system": "liver transplantation", "conditions": "donor livers cold stored 24 hours in UW containing 2-APB", "description": "In further experiments, full scale liver transplants were performed in rats. Livers were harvested from male Sprague-Dawly rats and cold stored for 24 hours in UW solution, or UW containing 2-APB. The livers were then removed from cold storage and transplanted into recipient rats. The operations were performed under general anesthesia, and the animals were followed after surgery for 2 days."}, "[3]": {"test_system": "liver ischemia/reperfusion injury", "remark": "listed apart in the source", "experimental": "Methods: Following overnight fast, male Sprague-Dawley rats were placed under general anesthesia with isoflurane gas (3%, 2 L O2). Via a midline incision, a laparotomy was performed and the portal vein, hepatic artery, and bile duct were identified and dissected free from surrounding structures. […] Approximately 70% liver ischemia was created by using an atraumatic vessel clamp (S&T Microclamp B-3, Fine Science Tools, Foster City, Calif.) to occlude the portal vein and hepatic artery branches to the median and left liver lobes. […] The clamp was removed after 1 hour and the livers were given three hours to reperfuse with blood while the animals were conscious. Liver injury was assessed by serum levels of AST, ALT, LDH, which are three standard serum markers of acute ischemia/reperfusion injury to the liver. Histologic liver analysis using H&E staining and TUNEL assay, which identifies terminally damaged (apoptotic) cells, were used to look directly at cell damage in the collected livers.\nSerum Transaminase Determinations: Serum collected from each animal at the time of euthanasia was analyzed for aspartate aminotransferase (AST), alanine aminotransferase (ALT), and lactic acid dehydrogenase (LDH) concentrations.\nAssessment of apoptosis: In order to quantitate the rate of apoptosis in a sensitive manner, the inventors performed terminal deoxynucleotidyl transferase-mediated deoxyuridine triphosphate nick-end labeling (TUNEL) on paraffin embedded tissue sections from each animal. This assay was performed following the manufacturer's recommendations for a commercially available kit (ApopTag Plus Fluorescein In Situ Apoptosis Detection Kit, Chemicon International, Inc., Temecula, Calif.). Five randomly selected fields from each tissue section were examined at an original magnification of 200×. The number of positively staining cells per field was recorded. The average number of positively staining nuclei per field for each animal was used for analysis.\nQuantitation of liver necrosis: Paraffin embedded tissue sections were stained with hematoxylin and eosin (H&E) and examined at an original magnification of 200×. Digital photomicrographs were made from five randomly selected fields of each tissue section. […] ImagePro software was used to create specific overlays of any region of necrosis in each of the photomicrographs. Using these overlays, percent area necrosis was calculated for each photomicrograph. The average percent area necrosis for each animal was then used for analysis."}, "hepG2 cells": {"test_system": "hepG2 cells", "conditions": "100 μM in UW prior to cold storage, 6 hour ischemic", "experimental": "To investigate the cellular mechanisms of 2-APB, an in vitro model using hepG2 cells transfected with GFP-tagged cytochrome c was used. […] Cells were grown at 37° C., 5% CO2 in MEM (ATCC, Manassas, Va.), with 10% fetal bovine serum, and 1% penicillin/streptomycin to 80% confluence. The media was replaced with UW solution and cells were incubated at 4° C. in hypoxic conditions for 6 hours. Hypoxia was achieved by placing the cells in an airtight incubator (Form a Scientifica, Marietta, Ohio), which was flushed with 5% CO2 and 95% N2 until the oxygen content in the container reached <0.1%, as verified using a dissolved O2 meter (Model 4000, VWR Scientific Products, Suwannee, Ga.). To render the storage solution hypoxic before experiments were carried out, UW was preincubated in the hypoxic chamber in an open sterile container for 8 h before experiments were carried out. […] Following 6 hours of hypothermic storage, the UW was replaced with warm, oxygenated media, and the cells were incubated at 37° C. Cytoplasmic extracts were harvested in lysis buffer (10 mM of KCl, 10 mM of HEPES, 1 mM of NaEDTA, 200 mM of Mannitol, 50 mM of sucrose) immediately following storage and after 60, 120, and 180 min of rewarming. HepG2 cytoplasmic extracts were harvested before exposure to storage conditions to serve as a control (untreated control). […]"}, "[4]": {"conditions": "cited from earlier work"}, "[5]": {"test_system": "mitochondrial calcium uptake", "experiment": "45Ca2+ uptake with ATP in mitochondria from non-ischemic and 24 h cold-stored livers", "assay_type": "biochemical, rat", "description": "Methods: Rat livers were perfused and stored using a previously reported technique (Belous et al., 2003). Briefly, an abdominal incision was made and the portal vein was cannulated with a 20-gauge cannula. The liver was then perfused with 30 ml 4° C. University of Wisconsin solution (UW). Half of the liver was processed for calcium uptake experiments immediately, while the other half was first stored for 24 hours in 4° C. UW solution (ischemic cold storage). Mitochondria were isolated from the liver as described in Example 1. Mitochondrial calcium uptake experiments were performed on isolated mitochondria from both the ischemic and non-ischemic portions of the liver as described in Example 1. In order to simulate the cellular conditions present during ischemia/reperfusion, 1 mM ATP was added to the incubation buffer. The selective, membrane-permeable PLC inhibitor, U-73122, was added to mitochondrial calcium uptake reaction tubes to a final concentration of 5 μM. This compound was tested on mitochondria isolated from both ischemic and non-ischemic livers to determine the effect of PLC inhibition on mitochondrial calcium uptake following ischemia/reperfusion. […] Ruthenium red (10 μM) was used to block the uniporter and ensure that all observed calcium uptake was ruthenium red-sensitive, and thus entering solely through the uniporter. To simulate reperfusion, mitochondria were incubated for 30 minutes in a 37° C. water bath with ATP present, after which the total mitochondrial calcium uptake was quantified as described in Example 1."}, "PLC": {"test_system": "PLC", "conditions": "read-out: EC50 reported for PLC inhibition in intact cells; cited from earlier work"}, "[6]": {"test_system": "liver ischemia/reperfusion injury", "experiment": "70% liver ischemia/reperfusion, ruthenium red pretreatment", "assay_type": "in vivo, rat", "description": "Thirty minutes prior to the initiation of liver ischemia, animals received ruthenium red (30 mg/kg in NaCl) or vehicle (0.9% NaCl) IV. Ischemia was carried out for one hour. The total anesthesia time for the animals was 90 minutes. Sham operated animals received laparotomy, mobilization of the liver, and underwent equivalent anesthesia. Following vascular clamp removal, animals were allowed to reperfuse for periods of 15 minutes, 1 hr, 3 hr, or 6 hr. At the time of animal sacrifice, serum was collected, and liver tissue was preserved for histological analysis. A total of 40 animals were used for this experiment. Ten animals were used for each time point: 4 ischemia/reperfusion, 4r ischemia/reperfusion with ruthenium red pretreatment, and 2 sham operated animals. […] All experimental measurements and data were obtained as detailed in Example 2."}, "[7]": {"conditions": "0.5-7.5 μM, 0.2 μM 45Ca2+, baseline 0.14% DMSO"}, "[8]": {"conditions": "30 mg/kg, 30 min before 1 h ischemia, 6 hours of reperfusion"}}, "note": "Entries after “also recorded” stand apart in the source; their conditions may differ.", "data": [{"molecule": "NCCOB(c1ccccc1)c1ccccc1", "note": "[2-APB, 2-aminoethoxydiphenyl borate]", "values": [{"measurement": "EC50", "setting": "[1]; 30 min, 37° C.", "result": "2000 to 3000", "unit": "nM"}, {"measurement": "mitochondrial calcium influx", "setting": "[1]; range of 1-100 μM 2-APB", "result": "consistently and dose-dependently inhibited"}, {"measurement": "elevation of serum AST, ALT and LDH", "setting": "[2]; 2 mg/kg in DMSO, portal vein at onset of reperfusion, 3 h reperfusion", "result": "significantly inhibited"}, {"measurement": "liver necrosis, H&E histology", "setting": "[2]; 2-APB administered during reperfusion", "result": "little evidence of liver necrosis"}, {"measurement": "Mortality at 2 days", "setting": "liver transplantation", "result": 0, "unit": "%"}, {"measurement": "liver damage by serum AST, ALT, LDH in sham-operated animals", "setting": "[3]; 2 mg/kg in DMSO, portal vein, after sham operation", "result": "neither 2-APB nor the vehicle, DMSO, were damaging to the liver"}, {"measurement": "rise in serum AST, ALT and LDH", "setting": "[3]; 2 mg/kg in DMSO, portal vein, before 1 h ischemia, 3 h reperfusion", "result": "eliminated the rise in AST, ALT and LDH"}, {"measurement": "liver histology 400×", "setting": "[3]; 2 mg/kg portal vein before 1 h ischemia, 3 h reperfusion", "result": "Cells are healthy and appear identical to the normal liver cells"}, {"measurement": "cells undergoing cell death", "setting": "[3]; 2 mg/kg portal vein before 1 h ischemia, 3 h reperfusion, H&E and TUNEL", "result": "≤ 2", "unit": "%"}, {"measurement": "release of GFP-tagged cytochrome c into the cytoplasm", "setting": "hepG2 cells", "result": "prevented this release"}, {"measurement": "solubility in DMSO", "setting": "[4]", "result": 20, "unit": "mg/mL"}, {"measurement": "solubility in ethanol", "setting": "[4]", "result": 25, "unit": "mg/mL"}]}, {"molecule": "COc1ccc2c(c1)CCC1C2CCC2(C)C(NCCCCCCN3C(=O)C=CC3=O)CCC12", "note": "(stereo not drawn) [U-73122, 1-[6-((17β-3-Methoxyestra-1,3,5(10)-trien-17-yl)amino)hexyl]-1H-pyrrole-2,5-dione]", "values": [{"measurement": "inhibition of mitochondrial calcium uptake", "setting": "[1]; 5 μM or greater U-73122", "result": "90-100%"}, {"measurement": "mitochondrial calcium uptake", "setting": "[1]; [7]", "result": "dose-dependently inhibited"}, {"measurement": "EC50", "setting": "[1]; 30 min, 37° C.", "result": "2000 to 3000", "unit": "nM"}, {"measurement": "decrease of mitochondrial calcium uptake", "setting": "[5]; 5 μM, mitochondria from ischemic livers (24 h 4° C. UW), vs. ATP and calcium alone", "result": "85±2", "unit": "%"}, {"measurement": "decrease of mitochondrial calcium influx", "setting": "[5]; 5 μM, mitochondria from non-ischemic livers, vs. ATP and calcium alone", "result": "54±5", "unit": "%"}, {"measurement": "solubility in DMSO", "setting": "[4]", "result": 1, "unit": "mg/mL"}, {"measurement": "solubility in ethanol", "setting": "[4]", "result": 0.5, "unit": "mg/mL"}, {"measurement": "EC50", "setting": "PLC", "result": "1000 to 2100", "unit": "nM"}]}, {"molecule": "COc1ccc2c(c1)CC[C@@H]1[C@@H]2CC[C@]2(C)[C@@H](NCCCCCCN3C(=O)CCC3=O)CC[C@@H]12", "note": "[U-73343, 1-[6-((17β-3-Methoxyestra-1,3,5(10)-trien-17-yl)amino)hexyl]-2,5-pyrrolidinedione]", "values": [{"measurement": "mitochondrial calcium uptake", "setting": "[1]; [7]", "result": "no effect; also recorded: did not significantly affect"}, {"measurement": "mitochondrial calcium uptake", "setting": "[5]; 5 μM, mitochondria from ischemic livers (24 h 4° C. UW)", "result": "slight and insignificant decrease; also recorded: no effect"}, {"measurement": "mitochondrial calcium uptake", "setting": "[5]; 5 μM, mitochondria from non-ischemic livers", "result": "slight but significant increase; also recorded: did not"}]}, {"molecule": "N.N.N.N.N.N.N.N.N.N.N.N.N.N.[Cl-].[Cl-].[Cl-].[Cl-].[Cl-].[Cl-].[O-2].[O-2].[Ru+3].[Ru+3].[Ru+4]", "note": "[ruthenium red]", "values": [{"measurement": "mitochondrial calcium uptake", "setting": "[1]; 10 μM ruthenium red, 30 min, 37° C.", "result": "completely blocked"}, {"measurement": "serum ALT", "setting": "[6]; [8]", "result": "294±39"}, {"measurement": "serum AST", "setting": "[6]; [8]", "result": "597±121"}, {"measurement": "liver necrosis", "setting": "[6]; 3 and 6 hours of reperfusion", "result": "significantly decreased"}, {"measurement": "AST and ALT levels", "setting": "[6]; 3 hours of reperfusion", "result": "trend for the animals pretreated with ruthenium red to have lower AST and ALT levels"}, {"measurement": "liver necrosis, percent area", "setting": "[6]; 3 hours of reperfusion", "result": "5%±2%"}, {"measurement": "reduction in ALT levels", "setting": "[6]; 6 hour reperfusion time point", "result": 4, "unit": "fold"}, {"measurement": "reduction in AST levels", "setting": "[6]; 6 hour reperfusion time point", "result": 2.5, "unit": "fold"}, {"measurement": "liver necrosis, percent area", "setting": "[6]; 6 hours of reperfusion", "result": "3%±1%"}, {"measurement": "rate of apoptosis (TUNEL)", "setting": "[6]; all reperfusion time points (15 min, 1, 3, 6 hr)", "result": "significantly decreased"}, {"measurement": "AST or ALT levels in sham operated animals", "setting": "[6]; pretreatment of sham operated animals vs. vehicle alone", "result": "did not alter"}, {"measurement": "mitochondrial calcium uptake", "setting": "[5]; 10 μM ruthenium red, mitochondria from both ischemic and non-ischemic livers", "result": "prevented calcium uptake"}, {"measurement": "mitochondrial calcium uptake", "setting": "[5]; 10 μM ruthenium red, mitochondria from both ischemic and non-ischemic livers, listed as Ruthenium red", "result": "completely blocked"}, {"measurement": "solubility in water", "setting": "[4]", "result": "soluble in water"}]}, {"molecule": "Ru360", "values": [{"measurement": "solubility in water", "setting": "[4]", "result": "soluble in water"}]}]}
